Experimental findings from patent US20250388593A1 (MITSUBISHI TANABE PHARMA CORPORATION, priority 2023, published 2025) are described below.

Molecules are shown by their SMILES. Some results are limits rather than exact numbers.

Series [1] in a line: Stability against racemization (chiral HPLC). Format: physicochemical. On the procedure:
Test Example 7: Stability Against Racemization Each test sample (1 mg) was dissolved in CH3CN (1 mL), and 0.1 M N-methylmorpholine aqueous solution (adjusted to pH 7.4 with 1N HCl) (1 mL) was added to dilute the solution twofold, thereby preparing a solution with a final concentration of 0.5 mg/mL. The sample was divided into nine portions of 150 μL each, and each portion was placed in a sampler set to 37° C. The enantiomers in the sample were quantified at 0, 1, 3, 6, 24, 48, 72, and 167 hours under the following HPLC conditions, and the enantiomeric excess (ee) at each time point was calculated.
As test samples, Example Compound 211-1 was used as an example, while (S)-thalidomide represented by the following formula
• Equipment: ACQUITY UPLC H-Class Waters • Column: […] IE-3 (3 μm, 4.6×150 mm) Daicel Corporation • Flow rate: 0.5 mL/min • Column temperature: 25° C.
• Mobile phase: 100% MeOH • Injection volume: 0.7 μL • Detection wavelength: 217.0 nm
• Mobile phase: 100% MeOH • Injection volume: 1.2 μL • Detection wavelength: 221.0 nm
• Mobile phase: EtOH/CH3CN=90/10 • Injection volume: 1.5 μL • Detection wavelength: 221.0 nm

The target in another series is CRBN truncate (318-426) (Homo sapiens (Human), UniProt Q96SW2). Briefly: Measurement of molecular interactions using surface plasmon resonance (SPR), Biacore T200. Format: binding. Conditions: 25° C., immobilized CRBN truncate, upper limit of measurement 200 μM. Put shortly: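 C-terminally Avi-tagged CRBN (318-426) captured on a streptavidin SA chip on a Biacore T200. Running buffer 10 mM HEPES pH 7.5, 150 mM NaCl, 1 mM TCEP, 0.005% Tween 20, 2% DMSO; 60 s contact, 120 s dissociation.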
Chain of CRBN truncate (318-426) (Q96SW2 318-426): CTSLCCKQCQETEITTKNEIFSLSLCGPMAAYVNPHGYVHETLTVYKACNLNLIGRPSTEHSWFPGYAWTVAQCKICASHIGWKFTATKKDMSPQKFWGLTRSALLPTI

Where [2] appears, read: 0 h, pH 7.4, 37° C., CH3CN/0.1 M N-methylmorpholine aqueous solution.

As for `O=C1CC[C@H](N2C(=O)c3ccccc3C2=O)C(=O)N1` [(S) Thalidomide, (S)-thalidomide], the “ee Normalized to 100 at 0 min” value came out at 100 in series [1] (0 h, pH 7.4, 37° C.); 79.59 in series [1] (24 h, pH 7.4, 37° C.); 63.24 in series [1] (48 h, pH 7.4, 37° C.); 50.23 in series [1] (72 h, pH 7.4, 37° C.); 20.16 in series [1] (167 h, pH 7.4, 37° C.). Further, the ee in series [1] (setting [2]) was determined as 92.11; in series [1] (24 h, pH 7.4, 37° C.), 73.31; in series [1] (48 h, pH 7.4, 37° C.), 58.25; in series [1] (72 h, pH 7.4, 37° C.), 46.27; in series [1] (167 h, pH 7.4, 37° C.) it was 18.57; in series [1] (Initial), 92.16.
As for `Cn1c(=O)n([C@@H]2CCCC(=O)NC2=O)c2cccc(I)c21` (stereo in doubt) [Example 211-1, 3-(4-Iodo-3-methyl-2-oxobenzimidazol-1-yl) azepane-2,7-dione], the “ee Normalized to 100 at 0 min” value was determined as 100 in series [1] (0 h, pH 7.4, 37° C.); 88.21 in series [1] (24 h, pH 7.4, 37° C.); 78.16 in series [1] (48 h, pH 7.4, 37° C.); 70.46 in series [1] (72 h, pH 7.4, 37° C.); 42.07 in series [1] (167 h, pH 7.4, 37° C.). Also, the ee in series [1] (setting [2]) worked out at 99.43; in series [1] (24 h, pH 7.4, 37° C.) it was 87.71; in series [1] (48 h, pH 7.4, 37° C.), 77.71; in series [1] (72 h, pH 7.4, 37° C.) it was 70.06; in series [1] (167 h, pH 7.4, 37° C.) it was 41.83; in series [1] (Initial), 99.44.
Usually Kd stands for the free concentration of one partner at which half of the binding sites on the other are occupied at equilibrium, for simple one-to-one binding. In turn, `CC(C)(C)OC(=O)NCCCCCN1CC2(CC(=O)N(C3CCC(=O)NC3=O)C2=O)C1` (centres unmarked) [Example 50, tert-Butyl N-[5-[6-(2,6-dioxopiperidin-3-yl)-5,7-dioxo-2,6-diazaspiro[3.4]octan-2-yl]pentyl]carbamate] registered a Kd on CRBN truncate (318-426) of at least 100 µM.
Still for that read-out and setting: next, `CCOC(=O)c1ccc2nc(N3CC4(CC(=O)N(C5CCCC(=O)NC5=O)C4=O)C3)sc2c1` (centres unmarked) [Example 273-2, Ethyl 2-[6-(2,7-dioxoazepan-3-yl)-5,7-dioxo-2,6-diazaspiro [3.4]octan-2-yl]-1,3-benzothiazole-6-carboxylate]: at least 100 µM.
Take `Cn1c(=O)n([C@@H]2CCC(=O)NC2=O)c2cccc(I)c21` [Compound A′]: the “ee Normalized to 100 at 0 min” value amounted to 100 in series [1] (0 h, pH 7.4, 37° C.); 80.94 in series [1] (24 h, pH 7.4, 37° C.); 65.4 in series [1] (48 h, pH 7.4, 37° C.); 52.76 in series [1] (72 h, pH 7.4, 37° C.); 22.41 in series [1] (167 h, pH 7.4, 37° C.). Besides, the ee in series [1] (setting [2]) amounted to 96.08; in series [1] (24 h, pH 7.4, 37° C.), 77.77; in series [1] (48 h, pH 7.4, 37° C.), 62.84; in series [1] (72 h, pH 7.4, 37° C.), 50.69; in series [1] (167 h, pH 7.4, 37° C.) it was 21.53; in series [1] (Initial), 95.39.
